Source: ChEMBL document CHEMBL1137206, “A nonpeptidic sulfonamide inhibits the p53-mdm2 interaction and activates p53-dependent transcription in mdm2-overexpressing cells” (J Med Chem, 2004)

Molecular target: Tumour suppressor p53/oncoprotein Mdm2 (Homo sapiens, UniProt P04637+Q00987)
Assay: In vitro inhibitory concentration against p53-mdm2 interaction
Assay type: protein assay

Tumour suppressor p53/oncoprotein Mdm2, sequence (P04637 whole entry): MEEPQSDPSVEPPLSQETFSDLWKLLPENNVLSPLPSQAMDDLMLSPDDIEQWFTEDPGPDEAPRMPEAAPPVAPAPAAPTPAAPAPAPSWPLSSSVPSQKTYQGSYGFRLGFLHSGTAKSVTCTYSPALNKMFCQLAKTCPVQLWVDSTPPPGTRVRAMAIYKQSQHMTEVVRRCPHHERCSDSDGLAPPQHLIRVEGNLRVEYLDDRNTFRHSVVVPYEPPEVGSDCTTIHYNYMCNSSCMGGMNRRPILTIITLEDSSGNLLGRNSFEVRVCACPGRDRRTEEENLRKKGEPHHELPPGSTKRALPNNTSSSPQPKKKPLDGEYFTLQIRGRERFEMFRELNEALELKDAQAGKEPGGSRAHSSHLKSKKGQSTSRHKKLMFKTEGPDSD
Tumour suppressor p53/oncoprotein Mdm2, sequence (Q00987 whole entry): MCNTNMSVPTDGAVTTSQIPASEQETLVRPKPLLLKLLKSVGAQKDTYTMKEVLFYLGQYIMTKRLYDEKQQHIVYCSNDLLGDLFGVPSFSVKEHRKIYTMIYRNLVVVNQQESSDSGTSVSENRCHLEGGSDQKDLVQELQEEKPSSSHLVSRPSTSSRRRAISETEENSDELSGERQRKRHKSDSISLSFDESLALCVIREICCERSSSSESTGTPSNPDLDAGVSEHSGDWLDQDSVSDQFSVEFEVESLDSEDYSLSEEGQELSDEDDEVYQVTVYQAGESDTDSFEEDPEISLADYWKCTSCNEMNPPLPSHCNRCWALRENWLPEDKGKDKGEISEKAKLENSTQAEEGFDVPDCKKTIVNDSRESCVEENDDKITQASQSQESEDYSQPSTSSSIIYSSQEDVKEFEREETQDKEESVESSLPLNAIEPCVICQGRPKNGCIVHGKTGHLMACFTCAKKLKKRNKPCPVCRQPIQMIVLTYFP

**Q.** Which IC50 does the source give for `CC(C)Oc1ccc(C(=O)NS(=O)(=O)c2ccc(NN=C3C(=O)N(c4ccccc4)N(c4ccccc4)C3=O)cc2)cc1` here?
**A.** 31.8 µM
